Like-named read-outs stand apart in the source and are kept apart here.
Assays:
Phytophthora infestans [1] = assay type: in vivo; settings: systemic; preparation poured onto standard soil of young tomato plants; inoculated 3 days after treatment; 100% rel. humidity, ca. 20°C; evaluated 3 days after inoculation; compared with prior-art comparison substances
Phytophthora infestans [2] = assay type: in vivo; settings: protective; young tomato plants sprayed to dripping wet, then inoculated with spore suspension; 100% rel. humidity, ca. 20°C; evaluated 3 days after inoculation; compared with prior-art comparison substances

| Compound | Wirksamkeit (Phytophthora infestans [1]) | Wirksamkeit (Phytophthora infestans [2]) |
| --- | --- | --- |
| C#CCOCC(=O)N(C=C)c1c(C)cccc1C [Beispiel 9, N-Propargyloxyacetyl-N-vinyl-2,6-dimethylanilin] | deutliche Überlegenheit in der Wirksamkeit gegenüber dem Stand der Technik |  |
| C=C(C)N(C(=O)Cn1cncn1)c1c(C)cccc1C [Beispiel 8, N-(1-Methylvinyl)-N-(1,2,4-triazol-1-yl-acetyl)-2,6-dimethylanilin] |  | deutliche Überlegenheit in der Wirksamkeit gegenüber dem Stand der Technik |
| C=C(C)N(C(=O)COC)c1c(C)cccc1C [Beispiel 1, N-Me-^1 thoxyacetyl-N-(1-methylvinyl)-2,6-dimethylanilin] | deutliche Überlegenheit in der Wirksamkeit gegenüber dem Stand der Technik | deutliche Überlegenheit in der Wirksamkeit gegenüber dem Stand der Technik |

— patent EP0075167B1 (priority 1981, dated 1983)
